Measurements from ChEMBL document CHEMBL3259781 (J Med Chem, 2014).
≈ marks a conversion by molar mass, not a printed value. Where “and” joins values, the source holds several entries; their conditions need not be identical. Identical values can stand only once. Each block holds one molecule with its values, some of them ahead of it.

Assays:
[1] = Plasma clearance in rat; format: ADME, organism-based
[2] = Half life in rat; format: ADME, organism-based; settings: in vivo
[3] = Half life in dog; format: ADME, organism-based, Canis lupus familiaris; settings: in vivo
[4] = Plasma clearance in dog; format: ADME, organism-based, Canis lupus familiaris
[5] = Volume of distribution in rat; format: ADME, organism-based; settings: in vivo
[6] = Volume of distribution in dog; format: ADME, organism-based, Canis lupus familiaris; settings: in vivo
[7] = molecular target: T1, Adenosine receptor A1 (Homo sapiens, UniProt P30542)
T1 sequence (P30542 whole entry): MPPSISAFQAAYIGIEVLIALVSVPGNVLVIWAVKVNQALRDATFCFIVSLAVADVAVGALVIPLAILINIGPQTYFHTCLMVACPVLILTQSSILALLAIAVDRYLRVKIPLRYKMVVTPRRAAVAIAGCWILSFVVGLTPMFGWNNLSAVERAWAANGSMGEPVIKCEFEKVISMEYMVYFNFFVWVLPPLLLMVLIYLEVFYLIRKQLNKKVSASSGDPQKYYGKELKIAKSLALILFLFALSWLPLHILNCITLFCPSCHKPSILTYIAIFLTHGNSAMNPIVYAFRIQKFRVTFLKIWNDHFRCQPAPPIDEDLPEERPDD

[8] = molecular target: T2, Adenosine receptor A2a (Homo sapiens, UniProt P29274)
T2 sequence (P29274 whole entry): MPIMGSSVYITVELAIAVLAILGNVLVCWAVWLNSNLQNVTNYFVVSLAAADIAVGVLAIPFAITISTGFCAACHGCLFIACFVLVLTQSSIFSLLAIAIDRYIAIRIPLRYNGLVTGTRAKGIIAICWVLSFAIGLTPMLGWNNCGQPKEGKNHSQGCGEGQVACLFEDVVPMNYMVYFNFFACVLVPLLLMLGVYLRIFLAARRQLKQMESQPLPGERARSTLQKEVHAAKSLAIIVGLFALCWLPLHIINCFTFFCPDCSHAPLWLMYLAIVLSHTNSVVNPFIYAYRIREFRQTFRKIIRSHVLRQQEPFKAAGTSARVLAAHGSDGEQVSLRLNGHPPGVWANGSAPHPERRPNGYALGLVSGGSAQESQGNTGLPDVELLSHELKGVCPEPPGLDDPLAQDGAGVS

[9] = species on record: Rattus norvegicus; assay: Selectivity ratio of Ki for rat striatal adenosine A1 receptor to Ki for rat recombinant adenosine receptor A2a
[10] = test system: Rattus norvegicus; assay: Anticataleptic activity in rat assessed as inhibition of haloperidol-induced catalepsy at 3 mg/kg, po after 30 mins; format: functional; settings: 0.5 h
[11] = species on record: Rattus norvegicus; assay: Systemic vasodilation in rat; format: functional
[12] = Ratio of drug level from brain to plasma in iv dosed rat after 0.5 hrs; format: ADME, organism-based; settings: read-out: BPR
[13] = species on record: Rattus norvegicus; assay: Anticataleptic activity in rat assessed as inhibition of haloperidol-induced catalepsy after 1 hr; format: functional
[14] = species on record: Rattus norvegicus; assay: Anticataleptic activity in rat assessed as inhibition of haloperidol-induced catalepsy after 2 hrs; format: functional
[15] = molecular target: T3, Adenosine receptor A2a (Rattus norvegicus, UniProt P30543); assay: Binding affinity to adenosine receptor A2a in rat striatum; format: tissue-based
T3 sequence (P30543 whole entry): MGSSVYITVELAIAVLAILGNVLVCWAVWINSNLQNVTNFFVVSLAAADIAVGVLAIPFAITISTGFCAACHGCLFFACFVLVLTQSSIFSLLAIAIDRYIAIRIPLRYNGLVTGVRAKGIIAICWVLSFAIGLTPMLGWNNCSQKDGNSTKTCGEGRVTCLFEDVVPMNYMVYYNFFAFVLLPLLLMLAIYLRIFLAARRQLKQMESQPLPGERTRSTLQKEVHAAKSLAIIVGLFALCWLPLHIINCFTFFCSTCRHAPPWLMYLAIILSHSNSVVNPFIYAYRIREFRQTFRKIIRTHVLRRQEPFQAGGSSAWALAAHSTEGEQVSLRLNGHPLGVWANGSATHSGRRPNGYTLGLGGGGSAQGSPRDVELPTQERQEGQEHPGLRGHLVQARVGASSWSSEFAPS

[16] = molecular target: T4, Adenosine receptor A3 (Homo sapiens, UniProt P0DMS8)
T4 sequence (P0DMS8 whole entry): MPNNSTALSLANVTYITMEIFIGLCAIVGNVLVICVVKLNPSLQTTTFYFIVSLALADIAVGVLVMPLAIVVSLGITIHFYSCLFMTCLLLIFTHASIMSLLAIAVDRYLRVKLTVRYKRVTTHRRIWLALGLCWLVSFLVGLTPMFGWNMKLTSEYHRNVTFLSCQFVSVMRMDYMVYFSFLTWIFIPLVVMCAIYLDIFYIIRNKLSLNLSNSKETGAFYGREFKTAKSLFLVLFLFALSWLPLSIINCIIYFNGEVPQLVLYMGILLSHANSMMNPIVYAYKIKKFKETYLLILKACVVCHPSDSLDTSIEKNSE

[17] = molecular target: T5, Adenosine receptor A3 (Rattus norvegicus, UniProt P28647); assay: Inhibition of rat recombinant adenosine A3 receptor
T5 sequence (P28647 whole entry): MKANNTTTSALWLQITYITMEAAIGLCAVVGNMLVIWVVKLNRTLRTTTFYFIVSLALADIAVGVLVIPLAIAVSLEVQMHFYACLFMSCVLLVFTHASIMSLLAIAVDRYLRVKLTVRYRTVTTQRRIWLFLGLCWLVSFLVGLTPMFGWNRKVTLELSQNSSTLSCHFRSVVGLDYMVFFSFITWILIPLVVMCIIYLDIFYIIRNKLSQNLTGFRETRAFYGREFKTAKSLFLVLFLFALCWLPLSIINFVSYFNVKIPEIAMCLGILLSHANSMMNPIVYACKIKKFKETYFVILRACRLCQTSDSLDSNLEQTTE

[18] = molecular target: T6, Adenosine receptor A2b (Homo sapiens, UniProt P29275)
T6 sequence (P29275 whole entry): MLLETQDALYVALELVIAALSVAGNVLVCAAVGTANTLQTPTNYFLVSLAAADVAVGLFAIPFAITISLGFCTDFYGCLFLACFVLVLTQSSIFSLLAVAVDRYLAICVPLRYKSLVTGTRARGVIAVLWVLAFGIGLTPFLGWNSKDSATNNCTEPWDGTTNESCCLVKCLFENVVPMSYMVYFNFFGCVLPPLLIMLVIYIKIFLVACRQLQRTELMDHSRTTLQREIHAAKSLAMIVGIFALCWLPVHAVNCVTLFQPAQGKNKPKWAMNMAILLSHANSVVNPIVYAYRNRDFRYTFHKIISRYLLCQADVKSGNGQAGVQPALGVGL

[19] = molecular target: T3, Adenosine receptor A2a
[20] = species on record: Homo sapiens; assay: Selectivity ratio of Ki for human recombinant adenosine A1 receptor to Ki for human recombinant adenosine receptor A2a
[21] = Solubility of the compound at pH 7.4; format: physicochemical; settings: buffer
[22] = test system: Mus musculus; assay: Anticataleptic activity in mouse assessed as inhibition of haloperidol-induced catalepsy at 10 mg/kg, po; format: functional
[23] = test system: Plasma; assay: Drug level in rat plasma measured per ml at 10 mg/kg, po; format: ADME, organism-based; design: dose 10 mg/kg, route oral; settings: in vivo
[24] = test system: Brain; assay: Drug level in rat brain measured per gram at 10 mg/kg, po; format: ADME, organism-based; design: dose 10 mg/kg, route oral; settings: in vivo
[25] = molecular target: T2, Adenosine receptor A2a; remark: listed apart in the source
[26] = AUC in rat at 3 mg/kg, po; format: ADME, organism-based; design: dose 3 mg/kg, route oral; settings: plasma
[27] = test system: Rattus norvegicus; assay: Anticataleptic activity in rat assessed as inhibition at 1 mg/kg, po after 1 hr; format: functional
[28] = test system: Rattus norvegicus; assay: Anticataleptic activity in rat assessed as inhibition at 1 mg/kg, po after 4 hrs; format: functional
[29] = Ratio of drug level from brain to plasma in rat; format: ADME; settings: read-out: BPR
[30] = species on record: Rattus norvegicus; assay: Anticataleptic activity in rat assessed as minimum efficacious dose after 1 hr; format: functional; settings: read-out: MED
[31] = species on record: Rattus norvegicus; assay: Anticataleptic activity in rat assessed as minimum efficacious dose after 4 hrs; format: functional; settings: read-out: MED

Structure (SMILES): COc1ccc(N2CCOCC2)c2sc(NC(=O)N3CCC(C)(O)CC3)nc12 [TOZADENANT]
- clearance [1]: 11 mL/min/kg
- half-life [2]: 4 h
- half-life [3]: 2.2 h
- clearance [4]: 8 mL/min/kg
- Vd [5]: 1.4 L/kg
- Vd [6]: 1.2 L/kg
- Ki [7]: 1.35 µM

Structure (SMILES): CCn1nnc([C@H]2O[C@@H](n3cnc4c(N)nc(N[C@H](CO)Cc5ccccc5)nc43)[C@H](O)[C@@H]2O)n1 [GW-328267]
- EC50 [8]: 0.009 µM

Structure (SMILES): Nc1nc(N2CCN3CCC[C@@H]3C2)cc2nc(-c3ccco3)nn12
- Ratio Ki [9]: 17
- inhibition in vivo at 3 mg/kg [10]: > 50%

Structure (SMILES): Nc1nc(N/N=C/C2CCCCC2)nc2c1ncn2[C@@H]1O[C@H](CO)[C@@H](O)[C@H]1O [BINODENOSON]
- ED50 [11]: 0.31 mg

Structure (SMILES): Cc1cc(-c2nnc(N)nc2-c2ccccc2)cc(C(F)(F)F)n1
- Kp at 0.5 h [12]: 3.2
- ED50 [13]: 0.2 mg/kg
- ED50 [14]: 0.2 mg/kg
- Ki [7]: 0.031 µM

Structure (SMILES): C#CCn1c(=O)c2c(nc(/C=C/c3cccc(OC)c3)n2C)n(CCCO)c1=O
- Ki [17]: > 10 µM
- Ki [18]: 2.9 µM
- Ki [19]: 0.005 µM

Continued, in another order:

- Kd [15]: 0.0007 µM
- Ki [16]: 1.2 µM
Structure (SMILES): Nc1nc2c(cnn2CCc2ccccc2)c2nc(-c3ccco3)nn12 [SCH-58261]

- Ratio Ki [20]: 193
- solubility [21]: 30 µg/mL (≈ 71.2 µM)
- Cp [23]: 150 ng/mL
- Drug uptake [24]: 560 ng/g
- Ki [25]: 0.0004 µM
- Ki [7]: 0.0772 µM
Structure (SMILES): COC1CCN(c2cccc(-c3cc(NC(C)=O)nc(-n4nc(C)cc4C)n3)n2)CC1
- inhibition in vivo at 10 mg/kg [22]: 88%

- Ratio Ki [20]: > 1660 and 1340
- AUC [26]: 1560 ng·h/mL
- Kp [29]: 1
- Ki [18]: > 1.7 µM
- Ki [25]: 0.0006 µM
- Ki [7]: > 0.996 µM
- Ki [16]: > 1 µM
Structure (SMILES): COCCOc1ccc(N2CCN(CCn3ncc4c3nc(N)n3nc(-c5ccco5)nc43)CC2)cc1 [PRELADENANT]
- inhibition (INH) ([27]; 1 mg/kg): 77%
- inhibition in vivo at 1 mg/kg ([27]; Rattus norvegicus, po, 1 h): 75%
- inhibition (INH) ([28]; 1 mg/kg): 70%
- inhibition in vivo at 1 mg/kg ([28]; Rattus norvegicus, po, 4 h): 80%
- minimal effective dose [30]: 0.3 mg/kg
- minimal effective dose [31]: 0.3 mg/kg
